Test [1] in a line: Inhibition of SARS-CoV-2 3CLpro using ACC-SAVLQSGFRK(DNP)-NH2 as substrate assessed as inhibition constant measured for 0.5 to 1 hr by fluorescence based analysis. Set-up: species or system Severe acute respiratory syndrome coronavirus 2.
Another test deals with SARS-CoV-2. In words: Antiviral activity against SARS-CoV-2 infected in human A549 cells transfected with ACE2 assessed as virus-induced cytopathic effect incubated for 4 days by microscopic analysis. It is filed as functional, organism-based. The settings on record: Severe acute respiratory syndrome coronavirus 2, A549, 96 h.
A further test concerns the target Procathepsin L (Homo sapiens, UniProt P07711). In words: Inhibition of human Cathepsin L.

pEC50, pKi: −log10 of the molar value.

Sequence of Procathepsin L (P07711 whole entry): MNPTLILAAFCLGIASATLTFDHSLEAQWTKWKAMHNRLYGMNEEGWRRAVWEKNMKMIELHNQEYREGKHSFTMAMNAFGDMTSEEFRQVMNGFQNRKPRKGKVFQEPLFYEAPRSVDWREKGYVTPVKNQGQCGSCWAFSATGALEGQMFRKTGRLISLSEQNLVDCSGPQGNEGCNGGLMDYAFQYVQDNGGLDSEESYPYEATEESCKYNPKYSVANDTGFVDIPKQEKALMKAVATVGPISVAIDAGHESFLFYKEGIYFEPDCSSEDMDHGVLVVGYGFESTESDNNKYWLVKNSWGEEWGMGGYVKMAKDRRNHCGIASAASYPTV

As for `CC(C)[C@H](NC(=O)OCc1ccccc1)C(=O)N[C@@H](CC1CCCCC1)C(=O)N[C@H](C=O)Cc1ccc[nH]c1=O`, the pKi was 8.05 in test [1] and 7.28 on Procathepsin L. Moreover, in the test with SARS-CoV-2, the pEC50 was 5.30.

For orientation: pKi means the Ki on a negative log10 scale, so that one unit is a factor of ten. One may read the pEC50 as the negative decadic logarithm of the EC50, by convention in mol/L.
